Test results published in patent US20260183275A1, “SUBSTITUTED QUINOLONE COMPOUNDS USEFUL AS INHIBITORS OF TLR9” (Bristol-Myers Squibb Company, priority 2022, published 2026).

What was measured:
Format in all cases: cell-based
[1] = target: T1, human TLR9 (Homo sapiens, UniProt Q9NR96); assay: TLR9 inhibition reporter assay (HEK-Blue cells, SEAP reporter); details: HEK-Blue cells overexpressing human TLR9; stimulated with ODN2006 5 nM; SEAP read after 22 hour; dose range 0.05 nM-50 μM
T1 construct: host or cells: HEK-Blue cells
T1 sequence (Q9NR96 26-1032): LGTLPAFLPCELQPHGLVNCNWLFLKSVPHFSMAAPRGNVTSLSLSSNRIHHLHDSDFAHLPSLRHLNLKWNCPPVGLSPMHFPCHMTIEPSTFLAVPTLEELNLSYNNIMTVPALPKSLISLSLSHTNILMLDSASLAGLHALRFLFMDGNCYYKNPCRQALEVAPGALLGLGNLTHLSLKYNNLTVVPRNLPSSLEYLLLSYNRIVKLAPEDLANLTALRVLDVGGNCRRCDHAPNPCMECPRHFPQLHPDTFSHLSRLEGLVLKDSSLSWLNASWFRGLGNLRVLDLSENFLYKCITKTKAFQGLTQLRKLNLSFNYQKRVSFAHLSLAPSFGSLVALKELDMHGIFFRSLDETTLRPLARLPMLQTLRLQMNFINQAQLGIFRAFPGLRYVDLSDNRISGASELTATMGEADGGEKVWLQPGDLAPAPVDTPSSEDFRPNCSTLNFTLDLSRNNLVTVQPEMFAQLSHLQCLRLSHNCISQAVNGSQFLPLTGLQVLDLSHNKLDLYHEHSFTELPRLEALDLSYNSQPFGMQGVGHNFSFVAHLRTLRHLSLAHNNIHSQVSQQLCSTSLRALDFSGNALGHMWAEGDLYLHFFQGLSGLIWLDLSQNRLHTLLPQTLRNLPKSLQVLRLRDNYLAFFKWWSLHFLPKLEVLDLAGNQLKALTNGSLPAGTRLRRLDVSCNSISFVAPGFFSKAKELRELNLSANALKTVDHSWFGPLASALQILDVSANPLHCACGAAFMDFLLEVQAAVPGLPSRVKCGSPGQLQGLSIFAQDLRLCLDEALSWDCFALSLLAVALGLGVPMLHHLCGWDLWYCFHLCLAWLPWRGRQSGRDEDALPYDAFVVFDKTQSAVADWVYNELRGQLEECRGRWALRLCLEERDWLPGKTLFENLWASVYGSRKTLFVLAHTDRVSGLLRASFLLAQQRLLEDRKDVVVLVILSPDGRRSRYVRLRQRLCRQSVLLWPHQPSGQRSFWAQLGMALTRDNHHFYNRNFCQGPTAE
Protocol: (§1) HEK-Blue™-cells (Invivogen) overexpressing human TLR7, TLR8 or TLR9 receptors were used for screening inhibitors of these receptors using an inducible SEAP (secreted embryonic alkaline phosphatase) reporter gene under the control of the IFN-β minimal promoter fused to five NF-κB and AP-1-binding sites. Briefly, cells are seeded into Greiner 384 well plates (15000 cells per well for TLR7, 20,000 for TLR8 and 25,000 for TLR9) and then treated with test compounds in DMSO to yield a final dose response concentration range of 0.05 nM-50 μM. After a 30 minute compound pre-treatment at room temperature, the cells are then stimulated with a TLR7 ligand (gardiquimod at a final concentration of 7.5 μM), TLR8 ligand (R848 at a final concentration of 15.9 μM) or TLR9 ligand (ODN2006 at a final concentration of 5 nM) to activate NF-κB and AP-1 which induce the production of SEAP. After a 22 hour incubation at 37° C., 5% CO2, SEAP levels are determined with the addition of HEK-Blue™ Detection reagent (Invivogen), a cell culture medium that allows for detection of SEAP, according to manufacturer's specifications. The percent inhibition is determined as the % reduction in the HEK-Blue signal present in wells treated with agonist plus DMSO alone compared to wells treated with a known inhibitor.

[2] = target: T2, human TLR7 (Homo sapiens, UniProt Q9NYK1); assay: TLR7 inhibition reporter assay (HEK-Blue cells, SEAP reporter); details: HEK-Blue cells overexpressing human TLR7; stimulated with gardiquimod 7.5 μM; SEAP read after 22 hour; dose range 0.05 nM-50 μM
T2 construct: host or cells: HEK-Blue cells
T2 sequence (Q9NYK1 27-1049): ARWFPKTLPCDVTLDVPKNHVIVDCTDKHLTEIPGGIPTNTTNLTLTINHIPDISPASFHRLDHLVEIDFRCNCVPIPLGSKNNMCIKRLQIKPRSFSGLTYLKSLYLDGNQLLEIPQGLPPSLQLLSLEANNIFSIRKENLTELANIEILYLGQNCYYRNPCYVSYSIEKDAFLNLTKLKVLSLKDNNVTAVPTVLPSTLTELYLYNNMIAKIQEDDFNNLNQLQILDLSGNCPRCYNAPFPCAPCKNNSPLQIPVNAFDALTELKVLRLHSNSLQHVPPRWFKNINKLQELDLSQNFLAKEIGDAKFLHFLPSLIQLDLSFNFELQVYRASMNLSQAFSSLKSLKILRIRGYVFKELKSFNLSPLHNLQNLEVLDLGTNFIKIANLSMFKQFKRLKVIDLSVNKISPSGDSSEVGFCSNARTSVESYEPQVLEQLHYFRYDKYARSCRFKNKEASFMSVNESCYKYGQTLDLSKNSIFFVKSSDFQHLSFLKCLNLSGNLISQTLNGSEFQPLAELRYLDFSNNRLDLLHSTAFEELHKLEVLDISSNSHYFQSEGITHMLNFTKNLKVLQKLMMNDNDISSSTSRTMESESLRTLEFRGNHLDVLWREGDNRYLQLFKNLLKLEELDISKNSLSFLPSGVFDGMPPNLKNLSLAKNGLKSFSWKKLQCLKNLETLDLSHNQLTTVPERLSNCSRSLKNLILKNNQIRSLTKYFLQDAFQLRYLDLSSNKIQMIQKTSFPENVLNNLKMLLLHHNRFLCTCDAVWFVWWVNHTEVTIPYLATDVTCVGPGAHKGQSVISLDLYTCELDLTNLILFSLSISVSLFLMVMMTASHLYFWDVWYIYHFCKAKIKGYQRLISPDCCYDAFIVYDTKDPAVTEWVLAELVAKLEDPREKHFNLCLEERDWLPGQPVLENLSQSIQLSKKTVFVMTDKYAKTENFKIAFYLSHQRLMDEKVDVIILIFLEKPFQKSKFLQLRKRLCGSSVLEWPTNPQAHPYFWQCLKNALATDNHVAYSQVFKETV
Protocol: as §1

[3] = target: T3, human TLR8 (Homo sapiens, UniProt Q9NR97); assay: TLR8 inhibition reporter assay (HEK-Blue cells, SEAP reporter); details: HEK-Blue cells overexpressing human TLR8; stimulated with R848 15.9 μM; SEAP read after 22 hour; dose range 0.05 nM-50 μM
T3 construct: host or cells: HEK-Blue cells
T3 sequence (Q9NR97 27-1041): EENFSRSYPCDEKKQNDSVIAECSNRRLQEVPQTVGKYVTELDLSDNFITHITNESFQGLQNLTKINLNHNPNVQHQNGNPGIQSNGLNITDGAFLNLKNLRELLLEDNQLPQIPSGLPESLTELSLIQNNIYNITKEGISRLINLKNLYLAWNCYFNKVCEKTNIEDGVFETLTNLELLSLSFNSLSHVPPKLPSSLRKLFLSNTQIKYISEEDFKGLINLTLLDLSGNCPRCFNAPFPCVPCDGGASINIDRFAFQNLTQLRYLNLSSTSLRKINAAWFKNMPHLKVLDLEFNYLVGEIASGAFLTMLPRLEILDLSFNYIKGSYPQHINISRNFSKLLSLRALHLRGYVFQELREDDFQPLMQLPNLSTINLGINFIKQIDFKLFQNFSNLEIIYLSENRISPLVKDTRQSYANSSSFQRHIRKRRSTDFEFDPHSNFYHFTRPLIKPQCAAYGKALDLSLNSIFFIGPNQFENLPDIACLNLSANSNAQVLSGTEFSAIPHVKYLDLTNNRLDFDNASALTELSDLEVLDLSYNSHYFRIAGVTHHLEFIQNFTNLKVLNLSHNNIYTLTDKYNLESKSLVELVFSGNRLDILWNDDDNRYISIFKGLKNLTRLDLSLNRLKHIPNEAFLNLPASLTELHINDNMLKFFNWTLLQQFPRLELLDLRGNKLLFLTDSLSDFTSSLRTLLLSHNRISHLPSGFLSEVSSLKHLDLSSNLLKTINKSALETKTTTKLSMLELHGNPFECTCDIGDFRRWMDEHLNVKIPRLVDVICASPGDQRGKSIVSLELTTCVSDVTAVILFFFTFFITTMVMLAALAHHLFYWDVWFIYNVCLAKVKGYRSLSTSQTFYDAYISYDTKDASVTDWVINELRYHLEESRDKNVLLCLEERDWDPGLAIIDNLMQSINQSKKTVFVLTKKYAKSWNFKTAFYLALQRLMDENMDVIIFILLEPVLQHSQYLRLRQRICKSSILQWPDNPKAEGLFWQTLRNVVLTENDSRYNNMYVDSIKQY
Protocol: as §1

Compound	IC50 [1]	IC50 [2]	IC50 [3]
CC(C)N1CCN(c2ccc(-c3ccc4[nH]c(=O)c(-c5ccc(S(C)(=O)=O)cc5)cc4c3)cc2)CC1 [Example 4, 3-(4-methanesulfonylphenyl)-6-{4-[4-(propan-2-yl)piperazin-1-yl]phenyl}-1,2-dihydroquinolin-2-one]	206 nM	4690 nM	≥ 50000 nM
CC(=O)Nc1ccc(-c2cc3cc(-c4ccc(N5CCN(C(C)C)CC5)cc4)ccc3[nH]c2=O)cc1 [Example 5, N-[4-(2-oxo-6-{4-[4-(propan-2-yl)piperazin-1-yl]phenyl}-1,2-dihydroquinolin-3-yl)phenyl]acetamide]	59 nM	3870 nM	≥ 50000 nM
CC(C)N1CCN(c2ccc(-c3ccc4[nH]c(=O)c(-c5ccccn5)cc4c3)cc2)CC1 [Example 6, 6-{4-[4-(propan-2-yl)piperazin-1-yl]phenyl}-3-(pyridin-2-yl)-1,2-dihydroquinolin-2-one]	79 nM	3830 nM	≥ 50000 nM
CC(C)N1CCN(c2ccc(-c3ccc4[nH]c(=O)c(-c5ccc(-n6cnnn6)cc5)cc4c3)cc2)CC1 [Example 7, 3-(4-(1H-tetrazol-1-yl)phenyl)-6-(4-(4-isopropylpiperazin-1-yl)phenyl)quinolin-2(1H)-one]	80 nM	1130 nM	≥ 50000 nM
CC(C)N1CCN(c2ccc(-c3ccc4[nH]c(=O)c(-c5cccc(NS(C)(=O)=O)c5)cc4c3)cc2)CC1 [Example 8, N-[3-(2-oxo-6-{4-[4-(propan-2-yl)piperazin-1-yl]phenyl}-1,2-dihydroquinolin-3-yl)phenyl]methanesulfonamide]	87 nM	299 nM	1820 nM
CC(C)N1CCN(c2ccc(-c3ccc4[nH]c(=O)c(-c5ccc(N(C)C)cc5)cc4c3)cc2)CC1 [Example 9, 3-[4-(dimethylamino)phenyl]-6-{4-[4-(propan-2-yl)piperazin-1-yl]phenyl}-1,2-dihydroquinolin-2-one]	96 nM	3070 nM	13700 nM
CC(C)N1CCN(c2ccc(-c3ccc4[nH]c(=O)c(-c5cc(F)c(F)cc5F)cc4c3)cc2)CC1 [Example 10, 6-{4-[4-(propan-2-yl)piperazin-1-yl]phenyl}-3-(2,4,5-trifluorophenyl)-1,2-dihydroquinolin-2-one]	118 nM	≥ 50000 nM	≥ 50000 nM
CC(C)N1CCN(c2ccc(-c3ccc4[nH]c(=O)c(-c5ccc(S(N)(=O)=O)cc5)cc4c3)cc2)CC1 [Example 11, 4-(2-oxo-6-{4-[4-(propan-2-yl)piperazin-1-yl]phenyl}-1,2-dihydroquinolin-3-yl) benzene-1-sulfonamide]	119 nM	≥ 50000 nM	2050 nM
CC(C)N1CCN(c2ccc(-c3ccc4[nH]c(=O)c(-c5ccc(C#N)cc5)cc4c3)cc2)CC1 [Example 12, 4-(2-oxo-6-{4-[4-(propan-2-yl)piperazin-1-yl]phenyl}-1,2-dihydroquinolin-3-yl)benzonitrile]	121 nM	3000 nM	7560 nM
CC(C)N1CCN(c2ccc(-c3ccc4[nH]c(=O)c(-c5ccc(C(=O)N(C)C6COC6)cc5)cc4c3)cc2)CC1 [Example 13, N-methyl-N-(oxetan-3-yl)-4-(2-oxo-6-{4-[4-(propan-2-yl)piperazin-1-yl]phenyl}-1,2-dihydroquinolin-3-yl)benzamide]	122 nM	4890 nM	≥ 50000 nM
CC(C)N1CCN(c2ccc(-c3ccc4[nH]c(=O)c(-c5ccccc5C#N)cc4c3)cc2)CC1 [Example 15, 2-(2-oxo-6-{4-[4-(propan-2-yl)piperazin-1-yl]phenyl}-1,2-dihydroquinolin-3-yl)benzonitrile]	259 nM	459 nM	1030 nM
CC(C)N1CCN(c2ccc(-c3ccc4[nH]c(=O)c(-c5cncnc5)cc4c3)cc2)CC1 [Example 34, 6-{4-[4-(propan-2-yl)piperazin-1-yl]phenyl}-3-(pyrimidin-5-yl)-1,2-dihydroquinolin-2-one]	307 nM	1080 nM	
CC(C)N1CCC(c2ccc(-c3ccc4[nH]c(=O)c(-c5ccc(N(C)C)cc5)cc4c3)cc2)CC1 [Example 88, 3-[4-(dimethylamino)phenyl]-6-{4-[1-(propan-2-yl)piperidin-4-yl]phenyl}-1,2-dihydroquinolin-2-one]	449 nM		118 nM
